Measured values taken from patent US11090305B2, “Methods and compositions to reduce oxidative stress” (University of Massachusetts, priority 2009, dated 2021).

What was measured:
[1] = test system: bone marrow mononuclear cell population; test: Lymphocyte lineage specification: pre-B and pro-T cells in bone marrow; set-up: species or system mouse; settings: ApoE^−/− mice, in vivo treatment
Procedure: (§1) Cells were stained with monoclonal antibodies conjugated to various fluoroprobes. These antibodies included: Notch1, cKit (2B8), Sca-1 (E13-161.7), CD4 (L3T4), CD8 (53-6.72), CD90.1, CD25, CD44, TCRβ, NK1.1, γδTCR, CD45.1, CD45.2. The lineage cocktail consisted of CD4, CD8, B220 (RA3-6B2), TER-119, Mac-1 (MI/70), and Gr-1 (RB6-8C5). All antibodies were purchased from BD Bioscience (San Diego, Calif.). FACS analysis was carried out on a FACS Diva.
Hypercholesterolemia is associated with lymphocytosis, while induction of hypercholesterolemia in monkeys affects the rate of CD11b monocyte differentiation. […] FIGS. 46A-46C show lymphocyte lineage specification is altered in hypercholesterolemic mice. (A) The percentages of pre-B cells and pro-T cells in the bone marrow mononuclear cell population were lower and higher, respectively, in ApoE^−/− than in WT mice. These changes were reversed by in vivo treatment of ApoE mice with NAC. (B) The percentages of pre-B cells and pro-T cells in the bone marrow mononuclear cell population were lower and higher, respectively, in HCD than in WT mice. (C) The percentage of mature B cells was lower and that of mature T cells higher in the peripheral blood mononuclear cell population from ApoE mice than from WT mice. The percentage of NKT cells was also less in ApoE mice.

[2] = test system: HSCs; test: Competitive HSC transplantation, bone marrow repopulation; type: in vivo, mouse; settings: ApoE^−/− donor mice treated before HSC harvest (NAC 4 weeks; SB203580, PD98059 2 weeks)
Procedure: HSC were purified from freshly harvested bone marrow mononuclear cells as c-Kit^+Sca-1^+CD90.1^lowLin^− by FACS sorting. Recipient mice were C57BL/6 (WT) on standard chow. Recipients underwent lethal irradiation (1100 Rads delivered in 2 doses 3 hr apart). Immediately after the 2nd irradiation, recipients were anesthetized (2% isoflurane) and 10^6 HSC/0.1 ml sterile PBS were transplanted via retro-orbital injection. Mice were followed for 12 weeks before study or administration of AOM.
The functional consequence of this loss of quiescence by competitive transplantation was investigated next, insofar as the presence of quiescent HSC are critical for successful bone marrow reconstitution. HSCs from CD45.2 ApoE^−/− or HCD mice were mixed 1:1 with CD45.1 WT HSCs and then transplanted into lethally irradiated CD45.1 WT recipients.
Activation of p38 MAPK reduces HSC quiescence in Atm^−/− mice. To evaluate this phenomena in hypercholesterolemic mice, ApoE^−/− and WT mice were treated with the selective p38 MAPK inhibitor SB203580 or the MEK 1 inhibitor PD98059 for 2 weeks prior to harvest of HSCs for transplant. CD45.2 ApoE^−/− or WT HSCs with mixed 1:1 with CD45.1 WT HSCs and transplanted into lethally irradiated CD45.1 recipient mice.

[3] = test system: Notch1; test: Notch1 expression in HSCs and lymphoid progenitors (Example 5); type: in vivo, mouse
Procedure: as §1
The Notch family is an evolutionarily conserved system of receptors and ligands that play a fundamental role in regulating cell-fate decision in many types of stem and progenitor cells, including HSCs. Notch1 plays a critical role in lymphocyte differentiation, wherein expression of Notch1 favors T cell differentiation. To clarify the effects of hypercholesterolemia on the expression Notch family, the expression of Notch family was screened in HSCs isolated from WT and ApoE^−/− mice. The percentage of HSCs expressing of Notch1 was higher in hypercholesterolemic than WT mice, whereas no differences in Notch2, Notch4, or Delta-like-1 were noted among groups (FIG. 47A). FIGS. 47A-47D show notch 1 expression is greater in HSCs from hypercholesterolemic mice. […] (B) Within the HSC population, a higher percentage of long term-HSCs expressed Notch1 than did short term-HSCs. This difference was evident in both WT and ApoE^−/− mice, although the percentage of short term-HSCs expressing Notch1 was twofold higher in ApoE^−/− than WT mice. […] (D) Treatment of ApoE^−/−, but not WT mice with SB203580 reduced the percentage of HSCs expressing Notch1. m±sd, n=5, *p<0.05 vs. WT, †p<0.05 vs. ApoE or HCD, p<0.05 vs. long-term HSCs.

[4] = test system: ApoE^−/−-derived HSCs; test: HSC transplantation into lethally irradiated WT recipients; type: in vivo, mouse; settings: 12 weeks after transplant; ApoE^−/− donors pretreated 4 weeks
Description: It was next determined the oxidant status of HSCs transplanted into WT mice. To this end, lethally irradiated WT mice were transplanted with HSCs from WT or ApoE^−/− mice, or with HSCs harvested from ApoE^−/− mice pretreated with NAC for 4 weeks. […] Numbers in each representative FACS analysis are the m±sd for that group; n=5; *p<0.05 vs. WT→WT group; †p<0.05 for ApoE+NAC→WT vs. Apoe→WT.

[5] = test system: db/db MSC; test: Oxidative/nitrative stress in db/db MSC (DCF-DA staining, nitrotyrosine); type: cell-based, mouse; settings: db/db MSC in vitro
Description: Data are expressed as % positive DCF-DA cells/hpf. m±sd, n=5, *p<0.05. […] The db/db MSC expressed a greater oxidative/nitrative stress than WT MSC. […] In summary, in vitro, db/db MSC show greater oxidative nitrostive stress than WT MSCs and this phenotype can be reversed by N-acetylcysteine (NAC).

[6] = test system: db/db MSC; test: Basal protein expression in db/db MSC (western blot); type: cell-based, mouse
[7] = test system: hematopoietic stem cells (HSCs); test: DCF-DA staining of HSCs from hypercholesterolemic mice (Example 6); type: in vivo, mouse; settings: ApoE^−/− and HCD mice, 100 mg/Kg i.p. every other day for 4 weeks
Description: All mice were purchased from Jackson Laboratories (Bar Harbor, Me.) and were maintained in the mouse barrier facility. Care of mice was in accordance with NIH guidelines and the Institutional Animal Care and Use Committee of the University of Massachusetts Medical School approved all protocols. Mice were kept on a 12 hr day/night schedule and were allowed free access to chow and water. ApoE^−/− and WT mice were fed standard mouse chow (5.4 g fat/100 g diet, 0% cholesterol). HCD mice were fed a diet with 10 g fat/100 g diet, […] (Research Diets, New Brunswick, N.J.). […] Azoxymethane (AOM) was given by intraperitoneal injection (10 mg/Kg weekly for 3 weeks); 1% dextran sodium sulfate was added to the drinking water for the Pt week after AOM treatment. It is known that hypercholesterolemia induces oxidant stress in many cell types. […] FIGS. 49A-49C show hypercholesterolemia increases oxidant levels in hematopoietic stem cells. […] (B) Representative photomicrograph showing oxLDL-staining in HSC and BM-MNC from WT and ApoE^−/− mice. (C) Regression of mean polyp number/mouse on the % of HSC staining for DCF-DA. […] Statistical analysis was carried out using the means for each group. […] One of the principal means by which hypercholesterolemia induces oxidant stress is via the generation of oxidized low density lipoprotein (oxLDL).

## CC(=O)N[C@@H](CS)C(=O)O [NAC, N-acetylcysteine]
[1]
  percentages of pre-B cells and pro-T cells in bone marrow: reversed these effects
[2]
  percentage of CD45.2^+ bone marrow mononuclear cells 12 weeks after competitive transplantation: significantly increased the percentage of CD45.2^+ mononuclear cells in recipient bone marrow
[3]; ApoE^−/− mice, in vivo treatment
  percentages of pre-B cells and pro-T cells expressing Notch1: these effects were reversed by in vivo treatment with NAC
[3]; WT mice
  percentage of HSCs expressing Notch1: no effect was noted in WT mice
[3]; hypercholesterolemic mice (ApoE^−/−, HCD), in vivo treatment
  percentage of HSCs expressing Notch1: significantly reduced the percentage of ApoE^−/− and HCD HSCs expressing Notch1
[4]
  percentage of γδT cells in peripheral blood and NKT cells in thymus and peripheral blood of WT recipients: significantly less in WT recipients transplanted with ApoE^−/−-derived HSCs than WT mice transplanted with WT HSCs, or HSCs harvested from NAC-pretreated ApoE^−/− donor mice
[5]
  oxidative/nitrative stress (DCF-DA staining, nitrotyrosine accumulation): significantly reduced the presence of oxidative/nitrative stress
[6]
  eNOS expression: no change in eNOS expression
  phospho-eNOS expression: increased phospho-eNOS expression
[6]; basal
  PPARγ expression: reduced basal PPARγ expression
[7]
  DCF-DA staining in HSCs: significantly reversed
